Measured values taken from the supplement of paper PMC10307832.

Tests used:
Assay in all cases: relative viability (nuclei count vs DMSO), 5 days (fraction); higher = more cells survive
[1] = compound: CCc1c2c(nc3ccc(OC(=O)N4CCC(N5CCCCC5)CC4)cc13)-c1cc3c(c(=O)n1C2)COC(=O)[C@]3(O)CC [Irinotecan]
Method in brief: (§1)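 Lung cancer cell lines received five library-drug doses (not always all listed) spaced by √10, pinned on vehicle-anchored 1536-well plates after an overnight stay at 37 °C. Five days later, with no medium change, nuclei were Hoechst-stained, imaged at 4× and counted with MetaXpress. Viability is treated-well nuclei relative to vehicle-well nuclei, as a median across plates. Passing plates had control CV below 25% and at least one doubling.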

[2] = compound: CC[C@@H](C)CNCC(=O)N1CCC2=C([C@@H]1COC3=CC=CC(=C3)C)C=CS2 [RU-SKI 43]
Method in brief: as §1

[3] = compound: Cn1cc(-c2cnc3ccc4ccc(CS(=O)(=O)NCc5ccccn5)cc4c(=O)c3c2)cn1 [MK-8033]
Method in brief: as §1

[4] = compound: CC[C@@H](C)CNCC(=O)N1CCC2=C([C@@H]1COC3=CC=CC(=C3)C)C=CS2 [RU-SKI 43] + COc1cc2c(Oc3ccc(NC(=O)C4(C(=O)Nc5ccc(F)cc5)CC4)cc3F)ccnc2cc1OCCCN1CCOCC1 [Foretinib] (partner 0.25 µM)
Method in brief: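 Relative viability divides the nuclei count in treated wells by that in vehicle wells. Lung cancer cell lines were seeded in 1536-well plates, dosed by pin tool the next day, and fixed and stained after 5 days in one step with final 0.05% Triton X-100, 1% formaldehyde and 1 ug/ml Hoechst. Dosing was a single drug or a fixed anchor-drug dose plus five library-drug doses (not always all listed) in √10 steps, and values are medians of duplicate plates imaged at 4×.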

| Cell Line | relative viability ([1]; 0.6325 µM) | relative viability ([1]; 2 µM) | relative viability ([1]; 6.325 µM) | relative viability ([1]; 20 µM) | relative viability ([2]; 0.1 µM) | relative viability ([2]; 0.3162 µM) | relative viability ([2]; 1 µM) | relative viability ([2]; 3.162 µM) | relative viability ([2]; 10 µM) | relative viability ([3]; 0.02 µM) | relative viability ([3]; 0.06325 µM) | relative viability ([3]; 0.2 µM) | relative viability ([3]; 0.6325 µM) | relative viability ([3]; 2 µM) | relative viability ([4]; first compound 0.1 µM) | relative viability ([4]; first compound 0.3162 µM) | relative viability ([4]; first compound 1 µM) | relative viability ([4]; first compound 3.162 µM) | relative viability ([4]; first compound 10 µM) |
| --- | --- | --- | --- | --- | --- | --- | --- | --- | --- | --- | --- | --- | --- | --- | --- | --- | --- | --- | --- |
| LU99A | 0.38 | 0.355 | 0.215 | 0.212 | 0.93 | 1.08 | 0.95 | 0.966 | 0.851 | 1.05 | 0.897 | 0.817 | 0.947 | 0.926 | 0.86 | 0.99 | 0.815 | 0.742 | 0.731 |
| NCI-H1915 | 0.353 | 0.475 | 0.224 | 0.214 | 1.06 | 1.11 | 1.08 | 1 | 1.02 | 1 | 0.916 | 0.963 | 1.02 | 0.959 | 1.19 | 1.23 | 1.17 | 1.15 | 1.14 |
| H3255 | 0.743 | 0.684 | 0.392 | 0.379 | 1.02 | 0.995 | 1.11 | 0.995 | 0.885 | 1.06 | 0.853 | 0.942 | 0.794 | 0.942 | 0.914 | 0.83 | 0.817 | 0.708 | 0.841 |
| BEN | 0.735 | 0.73 | 0.345 | 0.338 | 1.05 | 0.987 | 1.25 | 0.991 | 1.05 | 1.04 | 0.913 | 0.963 | 0.934 | 0.939 | 0.789 | 0.548 | 0.992 | 0.53 | 0.705 |
| NCI-H23 | 0.693 | 0.73 | 0.332 | 0.234 | 1.03 | 1.18 | 1.1 | 1.1 | 0.926 | 0.977 | 0.897 | 0.893 | 1.06 | 0.86 | 1.01 | 0.882 | 1.12 | 1.27 | 0.973 |
| NCI-H1944 | 0.67 | 0.559 | 0.244 | 0.194 | 1.01 | 0.98 | 1.08 | 0.968 | 0.932 | 0.927 | 0.768 | 0.982 | 0.968 | 1.03 | 0.812 | 0.878 | 0.918 | 1.01 | 0.819 |
| NCI-H441 | 0.567 | 0.614 | 0.303 | 0.266 | 1.12 | 1.16 | 1.08 | 1.14 | 0.956 | 1.01 | 0.903 | 1.04 | 1.02 | 1.08 | 0.981 | 1.01 | 1.09 | 1.04 | 0.842 |
| NCI-H1437 | 0.824 | 0.719 | 0.426 | 0.289 | 1.07 | 1.04 | 1.14 | 1.04 | 0.986 | 0.964 | 0.972 | 0.919 | 1.01 | 0.93 | 1.22 | 1.24 | 1.37 | 1.2 | 1.22 |
